From publication PMC6530361, “Anti-tumor Efficacy Assessment of the Sigma Receptor Pan Modulator RC-106. A Promising Therapeutic Tool for Pancreatic Cancer” (Frontiers in Pharmacology, 2019)
Where two headings read alike, the source gives them in different places.

Columns and labels:
[1] = In vivo pancreas distribution study; set-up: species or system male CD-1 mice; conditions: male, CD-1, mouse, ip, mice
Description: The experiments were performed in agreement with the Italian Law D. L.vo 4 marzo 2014, n. 26. The treatments involved male CD-1 mice and a unique number on the tail identified each animal. Mice were housed, in groups of four, in cages suitable for the species. After 5 days of adaptation to the local housing conditions, animals were housed in a single, exclusive, air-conditioned room to provide a minimum of 15 air changes/hour. The environmental controls were set to maintain the temperature at around 22°C and the relative humidity within the range 50 to 60%, along with an approximate 12:12 h light/dark cycle automatically controlled. Food (Mucedola Standard GLP diet) and water were available ad libitum throughout the entire duration of the study. All animals were weighted on the day of the treatment.
Mice (n = 4/time point) received an intraperitoneal administration (i.p., 10 mL/kg) of RC-106 at 10 mg/kg. CD-1 male mice were exsanguinated under anesthesia (isoflurane) from the aorta at the following time points: 5, 10, 30, 120, 240, and 480 min. Blood samples were collected in tubes containing heparin, gently mixed and immediately placed on ice. Afterward, they have been centrifuged (3500 × g, at 4°C for 15 min), the obtained plasma has been collected and transferred to individually labeled tubes and frozen at -20°C until the analysis. Plasma samples were used for quantification of RC-106. […] The organ was homogenized using a Velp OV5 homogenizer with 20 mM ammonium formiate buffer in a ratio of 1 g of tissue per 10 mL of buffer.
20 mg/mL stock solution (s.s.) of RC-106 was prepared by dissolving the compound in DMSO. 1 mL of 5% Tween80 in H2O was slowly added to 500 μL of s.s. under stirring. Then 8.5 mL of water was gently spiked to obtain the 1 mg/mL formulation of RC-106.
Standard curves of RC-106 were prepared for plasma and pancreas homogenate, and analyzed together with each QC and unknown sample set. For the PK and pancreas distribution sample analysis, plasma and pancreas homogenate samples (50 μL) were spiked in 200 μL of IS in MeOH (0.1 μg/mL of RC-33), followed by 2 min vortex mixing. Samples were centrifuged and transferred in UFLC vials. 5 μL aliquots of the collected samples were injected into the LC-MS/MS system. Standard calibration graphs were constructed by linear least-squares regression analysis on the analyte/IS area ratio plotted against sample concentration. Calibration ranges were from 5 to 1000 ng/mL for plasma, and from 5 to 500 ng/mL for pancreas homogenate. Accuracy values were determined in triplicates at three different concentrations (high, medium, and low) in the range of linearity of the calibration curves.
Analyses were acquired on a Shimadzu AC20 UFLC system interfaced with an API 3200 Triple Quadrupole detector (AB Sciex). Data acquisition and control were performed using the Analyst^TM 6.1 (Applied Biosystems) Software. A Phenomenex Gemini-NX C18 (50 mm × 2 mm, 5 μm) column was selected to carry out the analytical evaluations. A gradient method was set up (Supplementary Table S1) and it provided the employment of water and methanol, both containing 0.1% of formic acid, at a flow rate of 0.3 mL/min. The LC eluate was directly introduced into the MS interface using the ESI in the positive ion mode. The MRM transitions m/z 181.2 were tracked (Supplementary Table S2).

S2R = system: S2R; set-up: method as in Rui et al., 2016; Rossi et al., 2017; conditions: ref Rui et al., 2016; Rossi et al., 2017; cited from earlier work
Capan-1 [2] = test: Western Blot of caspase 3 and 9 activation; assay type: cell-based; conditions: Capan-1, 12 h, 50 μM
Description: Western Blot were performed as previously described ([Arienti et al., 2016]). Briefly, Cell proteins were extracted with M-PER (Thermo Fisher Scientific) supplemented with Halt Protease Phosphatase Inhibitor Cocktail (Thermo Fisher Scientific).
Mini-PROTEANTGX^TM precast gels (4–20% and any kD; BIO-RAD) were run using Mini-PROTEAN Tetra electrophoresis cells and then electroblotted by Trans-Blot Turbo^TM Mini PVDF Transfer Packs (BIORAD). The unoccupied membrane sites were blocked with T-TBS 1X (Tween 0.1%) and 5% non-fat dry milk to prevent non-specific binding of antibodies and probed with specific primary antibodies overnight at 4°C. This was followed by incubation with the respective secondary antibodies. The antibody-antigen complexes were detected with Immun-Star^TM WesternC^TM kit (BIO-RAD).
The following primary antibodies were used: anti-sigma receptor (S18): sc-22948 (Santa Cruz Biotechnology inc.), anti-TMEM97, anti-caspase-3, and anti-caspase-9. Anti-vinculin (sc-5573) from Santa Cruz Biotechnology and anti-actin from Sigma Aldrich Inc., were used as housekeeping. Quantity One Software was used for analysis.

Capan-2 = test: MTS assay (cell viability, 2D); assay type: cell-based; conditions: Homo sapiens
Description: (§1) Pancreatic adenocarcinoma Panc-1, Capan-1, and Capan-2, cell lines were purchased by the ATCC. All cell lines were grown in culture medium composed of DMEM/Ham’s F12 (1:1; Euroclone) supplemented with fetal calf serum (10%; Euroclone), glutamine (2 mM; Euroclone), and insulin (10 μg/mL; Sigma-Aldrich, St. Louis, MO, United States). All experiments were performed on cells in the exponential growth phase and checked periodically for mycoplasma contamination by MycoAlert^TM Mycoplasma Detection Kit (Lonza, Basel, Switzerland).
(§2) Cytotoxicity was assayed using CellTiter 96® AQueous One Solution Cell Proliferation Assay (Promega, Milan, Italy). Cells were seeded onto a 96-well plate at a density of 3 × 10^3 cells per well. Cell lines were exposed to increasing concentrations of the drug, ranging from 0.1 to 100 μM. The effect of the drug was evaluated after 24, 48, and 72 h of continued exposure. Two independent experiments were performed in octuplicate. The OD of treated and untreated cells was determined at a wavelength of 490 nm using a […].
(§3) Dose response curves were created by Excel software. IC50 values were determined graphically from the plot.

Capan-1 [3] = test: MTS assay (cell viability, 2D); assay type: cell-based; conditions: Homo sapiens
Description: as §1, §2, §3

Panc-1 = test: MTS assay (cell viability, 2D); assay type: cell-based; conditions: Homo sapiens
Description: as §1, §2, §3

AUC(0-t) ([1]; pancreas, 10 mg/kg, i.p., 10 mg/kg, read-out: AUC0-t, pancreas (converted)): 28800 ng·h/mL
concentration at 5 min ([1]; pancreas, 5 min after i.p. 10 mg/kg, read-out: pancreas C): 25300 ng/g
concentration at 10 min ([1]; pancreas, 10 min after i.p. 10 mg/kg, read-out: pancreas C): 13900 ng/g
concentration at 30 min ([1]; pancreas, 30 min after i.p. 10 mg/kg, read-out: pancreas C): 11100 ng/g
concentration at 120 min ([1]; pancreas, 120 min after i.p. 10 mg/kg, read-out: pancreas C): 2710 ng/g
concentration at 240 min ([1]; pancreas, 240 min after i.p. 10 mg/kg, read-out: pancreas C): 2310 ng/g
concentration at 480 min ([1]; pancreas, 480 min after i.p. 10 mg/kg, read-out: pancreas C): 995 ng/g
Tmax ([1]; pancreas, 10 mg/kg): 5 min
Cmax ([1]; pancreas, i.p., 10 mg/kg, read-out: Cmax, pancreas): 25300 ± 5600 ng/g
Cmax ([1]; pancreas, i.p., 10 mg/kg, read-out: Cmax, pancreas (molar)): ~70 µM
half-life ([1]; pancreas, i.p., 10 mg/kg, read-out: t1/2, pancreas): 4 h
Kp ([1]; pancreas/plasma, 10 mg/kg, i.p., 10 mg/kg, read-out: AUC0-t pancreas/AUC0-t plasma): ~25
IC50 (Panc-1; PANC-1, 24 h exposure, read-out: IC50 values 24h): 55.3 ± 0.7 µM
IC50 (Panc-1; PANC-1, 48 h exposure, read-out: IC50 values 48h): 51.7 ± 1.38 µM
IC50 (Panc-1; PANC-1, 72 h exposure, read-out: IC50 values 72h): 52.1 ± 0.47 µM
SMILES: C/C(=C\CN1CCC(Cc2ccccc2)CC1)c1ccc2ccccc2c1 [RC-106, (E)-4-benzyl-1-(3-(naphthalen-2-yl)but-2-en-1-yl)piperidine]
S2R modulatory profile (S2R): S2R agonist
caspases 3 and 9 cleavage (Capan-1 [2]): cleaved
IC50 (Capan-2; CAPAN-2, 24 h exposure, read-out: IC50 values 24h): 52.6 ± 0.07 µM
IC50 (Capan-2; CAPAN-2, 48 h exposure, read-out: IC50 values 48h): 54.2 ± 2.18 µM
IC50 (Capan-2; CAPAN-2, 72 h exposure, read-out: IC50 values 72h): 53.3 ± 1.62 µM
IC50 (Capan-1 [3]; CAPAN-1, 24 h exposure, read-out: IC50 values 24h): 56.8 ± 0.98 µM
IC50 (Capan-1 [3]; CAPAN-1, 48 h exposure, read-out: IC50 values 48h): 50.3 ± 3.04 µM
IC50 (Capan-1 [3]; CAPAN-1, 72 h exposure, read-out: IC50 values 72h): 32.8 ± 3.43 µM
